US9067920B2, “Compounds useful for inhibiting Chk1” (Eli Lilly and Company, priority 2010, dated 2015)
Counter-ions that a name gives are not always drawn.

Columns and labels:
Assay type in all cases: in vivo, nude mice
[1] = tested on: HT-29 colon tumor xenograft; assay: HT-29 tumor xenograft model, subcutaneous administration of Chk1 inhibitor
Method: (§1) The ability of Chk1 inhibitors to potentiate tumor killing by DNA damaging agents can be determined in vivo using the Calu-6 lung and HT-29 colon tumor xenograft efficacy models. Calu-6 lung cancer cells are cultured in growth media (MEM with Earle's Balanced Salt Solution with L-glutamine supplemented with 10% (v/v) heat inactivated FBS, 1×MEM non-essential amino acids, 1× sodium pyruvate) and HT-29 colon cancer cells (ATCC) are cultured in growth media, (McCoy's 5A medium supplemented with 10% FBS) and expanded.
(§2) Cells are harvested and washed twice with phosphate buffered saline and 5×10^6 cells (HT-29) or 1×10^6 a cells (Calu-6) in growth media (without serum) are mixed with equal volume of BD Matrigel™ matrix, then injected subcutaneously into the flank of nude mice (CD-1 nu/nu).
At about day 16 after implant ([…]), gemcitabine is formulated fresh in saline daily and administered to animals by intraperitoneal route at 60 mg/kg dose. Twenty four hours later animals are administered the compound of Example 3, in 0.2% Tween-80/0.5% methylcellulose subcutaneously BID. After […], dosing is repeated for three additional cycles (Q4Dx4 with the compound of Example 3 offset+24 hours), Tumor growth inhibition (TGI) is calculated as the percent reduction in mean tumor size of a compound treated group from the mean tumor size of the vehicle-treated control group. Compounds within the scope of the invention are tested in this assay run substantially as above.

[2] = tested on: Calu-6 lung tumor xenograft; assay: Calu-6 tumor xenograft model, oral administration of Chk1 inhibitor
Method: as §1, §2
(§3) At about day 16 after implant (150-200 mm^3), gemcitabine is formulated fresh in saline daily and administered to animals by intraperitoneal route at 40 mg/kg dose. Twenty four hours later animals are administered Chk1 compound, in 0.2% Tween-80/0.5% methylcellulose by the oral route MD. After three days of rest, dosing was repeated for three additional cycles (Q5Dx4 with the compound of Example 3 offset+24 hours). Tumor growth inhibition (TGI) is calculated as described in the previous paragraph. Compounds within the scope of the invention are tested in this assay run substantially as above.

[3] = tested on: HT-29 colon tumor xenograft; assay: HT-29 tumor xenograft model, oral administration of Chk1 inhibitor
Method: as §1, §2, §3

`COc1nc(C)ccc1-c1cc(Nc2cncc(O[C@@H]3CCCNC3)n2)[nH]n1` [Example 3, (R)-[5-(2-Methoxy-6-methyl-pyridin-3-yl)-2H-pyrazol-3-yl]-[6-(piperidin-3-yloxy)-pyrazin-2-yl]-amine acetic acid salt] was tested. Which “% TGI at day 38” value ([1]; HT29, Example 3 40 mpk subcutaneous BID alone) did it give?
Its value is 26%.

And the “anti-tumor activity in combination with gemcitabine” value (shortened to “anti-tumor activity in combination”) ([1]; HT-29 xenograft, subcutaneous BID, gemcitabine 60 mg/kg ip)?
The value was “excellent dose dependent anti-tumor activity”.

What about the “increase in tumor growth inhibition over gemcitabine alone” value ([1]; subcutaneous, stated for HT-29 and Calu-6 models together) of the same molecule?
The value was “up to a six-fold increase in tumor growth inhibition over gemcitabine alone”.

And the “% TGI at day 37” value ([2]; Calu6, Example 3 30 mpk oral alone)?
Its value is 37%.

What about the “anti-tumor activity in combination” value ([2]; Calu-6 xenograft, oral, gemcitabine 40 mg/kg ip) of the same molecule?
Its value is “excellent dose dependent anti-tumor activity”.

And the “% TGI at day 50” value ([3]; HT29, Example 3 30 mpk oral alone)?
Its value is 39%.

What about the “anti-tumor activity in combination” value ([3]; HT-29 xenograft, oral, gemcitabine 40 mg/kg ip) of the same molecule?
Its value is “excellent dose dependent anti-tumor activity”.

And the “increase in tumor growth inhibition over gemcitabine alone” value ([3]; oral, stated for HT-29 and Calu-6 models together)?
The value was ≤ 2,9 fold.
